# According to patent EP4624482A1, “PYRIMIDOPYRIMIDINONE COMPOUND AND PHARMACEUTICAL COMPOSITION COMPRISING SAME” (Axceso Biopharma Co., Ltd., priority 2022, dated 2024):
# Columns and labels:
# SIRT1 = SIRT1 expression in HUVECs by western blot; assay type: cell-based, human; conditions: 24 hours
# Experimental: To determine the increase in SIRT1 expression by the compound of formula (1a-1) prepared in Example 1 above in human umbilical vein endothelial cells (HUVECs), HUVECs were seeded at 5 × 10^5/4 ml in a 60 mm cell culture dish using ECBM2 medium (Promocell) and stabilized for 12 hours in an incubator maintained at 37°C and 5% CO2, respectively.
# The cells were then treated with 10 nM, 100 nM and 1000 nM of the compound of formula (1a-1) prepared in Example 1 above, respectively, and incubated for another 24 hours, and then SIRT1 expression was determined by western blot.
# IL-6 = test: Serum IL-6 after CLP treatment, ELISA; assay type: in vivo, mouse; conditions: treated at 6 and 16 hours after CLP, serum at 18 hours
# Experimental: After CLP treatment, the inflammatory cytokines TNF-α and IL-6 were analyzed by ELISA.
# Specifically, after treating the compound of formula (1a-1) at 6 and 16 hours after CLP treatment, mouse blood was collected at 18 hours and allowed to stand at room temperature for 1 hour, then centrifuged at 3000 rpm for 10 minutes to obtain serum to analyze the amount of TNF-α and IL-6.
# [1] = system: dopamine transporter (DAT); test: Differentiation of pluripotent stem cells into dopaminergic neurons: DAT; assay type: cell-based; conditions: western blot of 5-week differentiation sample
# Experimental: Pluripotent stem cells were seeded in AggreWell plates (stemcell) at 5,000 cells/microwell and cultured for 5 days in E6 medium (GIBCO) to induce embryonic body (EB) formation. For neural rosette formation, EBs were seeded into 35 mm dishes in groups of 30 and cultured for 10 days in N2bF medium. The 35 mm dishes were used after being coated with 15 µg/ml of poly-L-ornithine (sigma) and 1 µg/ml of fibronectin (sigma). The N2Bf medium composition was DMEM/F12 (GIBCO), N2 supplement (stemcell) 1×, 10% NEAA (GIBCO), 55 µM betaMercaptoethanol (GIBCO), bFGF (peprotech) 20 ng/ml. For the formation of spherical neural masses (SNMs), rosette masses were sliced and cultured in petri dishes with N2bF medium. SNMs were no larger than 500 µM in size and were sliced and cultured for 3 to 4 passages. After subculture of SNM, the clumps were broken into small pieces using a tungsten mesh (Nilaco) for the neural progenitor cell (NPC) culture step, and then attached to a PLO/FN-coated dish and cultured in N2bF medium. To differentiate NPCs into dopaminergic neurons, the medium was replaced with an ITS-B27 medium after 2 days of NPC culture. […]
# The effect of the compound of formula (1a-1) on differentiation into neurons was evaluated by comparing the expression of tyrosine hydroxylase (TH) and dopamine transporter (DAT) depending on the presence or absence of treatment with the compound of formula (1a-1).
# C57BL/6 mice = test: Survival in sepsis induced by cecal ligation and puncture (CLP); assay type: in vivo; conditions: 100 ng/mouse (5 µg/kg) intravenously at 6 and 16 hours after CLP
# Experimental: C57BL/6 mice aged 7-8 weeks were purchased from Jabio (Suwon, Gyeonggi-do) and sepsis was induced by cecal ligation and puncture (CLP).
# Specifically, after anesthesia using 150 mg/kg of ketamine and 17.5 mg/kg of rompun, an abdominal incision of 1-2 cm was made to expose the cecum to induce sepsis. The cecum was ligated with 6-0 silk sutures at the distal end of the ileocecal valve, and a puncture was made with an 18-gauge needle. The perforated cecum was gently squeezed to push out 1-2 cm of feces, and the cecum was then retracted back into the abdominal cavity. The abdomen was then closed and pre-warmed normal saline (2.5 mL/100 g body weight) was injected into the mouse abdominal cavity immediately after the procedure. 6 and 16 hours after CLP treatment, the compound of formula (1a-1) was dissolved in phosphate buffered saline (PBS) and injected intravenously at 100 ng/mouse (5 µg/kg), and survival was examined for 10 days. […] In addition, as a drug-negative control, survival was examined in mice that received only PBS after CLP treatment.
# For comparison, we also examined the survival of a control group treated with fingolimod (FTY720), a known S1P modulator, instead of the compound of formula (1a-1) under the same conditions.
# [2] = system: amyloid beta monomer (monomeric Aβ, mAβ); test: mAβ expression in mouse brain of AD-induced animal model, fluorescence microscopy; assay type: in vivo, mice; conditions: 1 mg/kg intraperitoneally once every 3 days for 2 weeks; brain sections at 1 week and 4 weeks after drug administration
# Experimental: (§1) To determine the therapeutic effect on Alzheimer's Disease (AD), the effects on amyloid beta monomer (monomeric Aβ, mAβ) and Tau protein, which are biomarkers of AD, were analyzed in an AD-induced animal model.
# (§2) APP/PS/Tau transgenic mice were used as an AD-induced animal model. The compound of formula (1a-1) was administered intraperitoneally once every 3 days at a concentration of 1 mg/kg to 12-week-old transgenic mice for 2 weeks, and the expression of mAβ and Tau proteins in the mouse brain was measured after 1 and 4 weeks. After anesthetizing the mouse, the cervical region was incised with a dissecting tool, and then the occipital region was incised to remove both sides of the skull. The brain was washed with phosphate buffered saline (PBS) and fixed with 4% paraformaldehyde (Sigma, St Louis, MO, USA) for 12 hours at 4°C. These were cut to a thickness of approximately 10 µm using a vibratome, and hippocampus and cortex sections were collected and placed in 24 wells. PBS was added to the wells containing the fixed tissue sections, and fluorescent nanoparticles (QD565, red fluorescence) conjugated with anti-amyloid antibodies and anti-Tau antibodies (Santa Cruz, USA) were added to each 2 µM, and reacted at 4°C for 12 hours. The expression of mAβ and Tau was confirmed by fluorescence microscopy.
# Tau protein = test: Tau expression in mouse brain of AD-induced animal model, fluorescence microscopy; assay type: in vivo, mice; conditions: 1 mg/kg intraperitoneally once every 3 days for 2 weeks; brain sections at 1 week and 4 weeks after drug administration
# Experimental: as §1, §2
smiles,measurement,setting,value
"CCCCCCCCCCCCCC[C@H]1OP(=O)(O)O[C@H]1[C@@H](N)CO.Cl [formula (1a-1), (4S,5R)-4-((S)-1-amino-2-hydroxyethyl)-2-hydroxy-5-tetradecyl-1,3,2-dioxaphosphoran-2-oxide hydrochloride]",expression of SIRT1,SIRT1; 10 nM,increases
same,EC50,SIRT1; read-out: concentration (EC50) that increased the expression of SIRT1 by 50%,~10 nM
same,amount of inflammatory cytokine IL-6,IL-6,significantly decreased
same,DAT glycosylation,[1],increased
same,deaths after 10 days,C57BL/6 mice,no deaths
same,survival,C57BL/6 mice; for 10 days,more than 80%
same,red fluorescence for mAβ,[2],negligible
same,red fluorescence for Tau,Tau protein,negligible
